Measured values published in US11596639B2, “Substituted indole Mcl-1 inhibitors” (Vanderbilt University, priority 2016, dated 2023).
pKi: −log10 of the molar value. Where two headings read alike, the source gives them in different places.

Legend:
Mcl-1 = Mcl-1 (Homo sapiens (Human), UniProt Q07820); experiment: Fluorescence polarization anisotropy (FPA) competition assay, FITC-Bak or FITC-Bim BH3 peptide; assay type: binding; conditions: read-out: Ki for Inhibition of Mcl-1 by FPA assay
[1] = test system: H929 human cancer cell lines; experiment: Cellular viability / proliferation (Cell TiterGlo, 72 h); assay type: cell-based
Method in brief: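 Plating is at 1,000 cells/well in 10% FBS medium; after 24 h, compound is added as a 2-fold series starting at 50 μM with under 1% DMSO.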

[2] = H929 cells, 72 h, Cell TiterGlo, 10% FBS, read-out: GI50 on cellular proliferation of H929 human cancer cell lines
[3] = Homo sapiens, NCI-H929, 72 h, read-out: GI50 on cellular proliferation of H929 human cancer cell lines, H929 cells, 72 h, Cell TiterGlo, 10% FBS

Mcl-1, sequence (Q07820 172-327): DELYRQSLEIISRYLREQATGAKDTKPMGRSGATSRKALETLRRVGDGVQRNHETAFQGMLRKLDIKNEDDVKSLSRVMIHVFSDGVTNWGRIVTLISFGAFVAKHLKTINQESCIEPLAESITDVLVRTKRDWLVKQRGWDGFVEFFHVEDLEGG

| SMILES | pKi (Mcl-1) | GI50 ([1]; read-out: GI50 on cellular proliferation of H929 human cancer cell lines, H929 cells, 72 h, Cell TiterGlo, 10% FBS) [nM] | GI50 [1, 2] [nM] | GI50 [1, 3] [nM] |
| --- | --- | --- | --- | --- |
| Cc1cc(OCCCc2c3n(c4c(-c5c(C)nn(C)c5C)c(Cl)ccc24)[C@H](C)CN(c2nn(C)c4cccc(C(=O)O)c24)C3=O)cc(C)c1Cl [Example 179, (R)-3-(7-Chloro-10-(3-(4-chloro-3,5-dimethylphenoxy)propyl)-4-methyl-1-oxo-6-(1,3,5-trimethyl-1H-pyrazol-4-yl)-3,4-dihydropyrazino[1,2-a]indol-2(1H)-yl)-1-methyl-1H-indazole-4-carboxylic acid] | > 9.00 | 4700 | – | – |
| Cc1cc(OCCCc2c3n(c4c(-c5c(C)nn(C)c5C)c(Cl)ccc24)[C@H](C)CN(c2cc(OCc4ccccc4)cc4c2cc(C(=O)O)n4C)C3=O)cc(C)c1Cl [Example 297, (P, R)-6-(benzyloxy)-4-(7-chloro-10-(3-(4-chloro-3,5-dimethylphenoxy)propyl)-4-methyl-1-oxo-6-(1,3,5-trimethyl-1H-pyrazol-4-yl)-3,4-dihydropyrazino[1,2-a]indol-2(1H)-yl)-1-methyl-1H-indole-2-carboxylic acid] | 8.62 | – | 7900 | – |
| Cc1cc(OCCCc2c3n(c4c(-c5c(C)ncnc5C)c(Cl)ccc24)CCCN(c2cc(C(=O)O)c4ccn(C)c4c2)C3=O)cc(C)c1Cl [Example 130, 6-[8-Chloro-11-[3-(4-chloro-3,5-dimethyl-phenoxy)propyl]-7-(4,6-dimethylpyrimidin-5-yl)-1-oxo-4,5-dihydro-3H-[1,4]diazepino[1,2-a]indol-2-yl]-1-methyl-indole-4-carboxylic acid] | > 9.00 | – | – | 2400 |
| Cc1cc(OCCCc2c3n(c4c(-c5c(C)nn(C)c5C)c(Cl)ccc24)[C@H](C)CN(c2cc(OCc4ccccc4)cc4cc(C(=O)O)n(C)c24)C3=O)cc(C)c1Cl [Example 345, (P, R)-5-(Benzyloxy)-7-(7-chloro-10-(3-(4-chloro-3,5-dimethylphenoxy)propyl)-4-methyl-1-oxo-6-(1,3,5-trimethyl-1H-pyrazol-4-yl)-3,4-dihydropyrazino[1,2-a]indol-2(1H)-yl)-1-methyl-1H-indole-2-carboxylic acid] | 8.46 | – | 1800 | – |
| Cc1cc(OCCCc2c3n(c4c(-c5c(C)nn(C)c5C)c(Cl)ccc24)[C@H](C)CN(c2cccc4c2cc(C(=O)O)n4C)C3=O)cc(C)c1Cl [Example 113, (R)-4-(7-Chloro-10-(3-(4-chloro-3,5-dimethylphenoxy)propyl)-4-methyl-1-oxo-6-(1,3,5-trimethyl-1H-pyrazol-4-yl)-3,4-dihydropyrazino[1,2-a]indol-2(1H)-yl)-1-methyl-1H-indole-2-carboxylic acid] | > 9.00 | – | – | 330 |
| Cc1cc(OCCCc2c3n(c4c(-c5c(C)nn(C)c5C)c(Cl)ccc24)[C@H](C)CN(c2cn(C)c4cc(C(N)=O)ccc24)C3=O)cc(C)c1Cl [Example 277, 3-[(4R)-7-chloro-10-[3-(4-chloro-3,5-dimethyl-phenoxy)propyl]-4-methyl-1-oxo-6-(1,3,5-trimethylpyrazol-4-yl)-3,4-dihydropyrazino[1,2-a]indol-2-yl]-1-methyl-indole-6-carboxamide] | 8.18 | – | – | 1400 |
| Cc1cc(OCCCc2c3n(c4c(-c5c(C)nn(C)c5C)c(Cl)ccc24)[C@H](C)CN(c2cc(OCCN4CCCC4)cc4cc(C(=O)O)n(C)c24)C3=O)cc(C)c1Cl [Example 460, (R)-7-(7-Chloro-10-(3-(4-chloro-3,5-dimethylphenoxy)propyl)-4-methyl-1-oxo-6-(1,3,5-trimethyl-1H-pyrazol-4-yl)-3,4-dihydropyrazino[1,2-a]indol-2(1H)-yl)-1-methyl-5-(2-(pyrrolidin-1-yl)ethoxy)-1H-indole-2-carboxylic acid] | 8.77 | – | – | 420 |
| Cc1cc(OCCCc2c3n(c4c(-c5c(C)nn(C)c5C)c(Cl)ccc24)[C@H](C)CN(c2cn(C)c4ccc(C(=O)NCc5ccncc5)cc24)C3=O)cc(C)c1Cl [Example 284, 3-[(4R)-7-chloro-10-[3-(4-chloro-3,5-dimethyl-phenoxy)propyl]-4-methyl-1-oxo-6-(1,3,5-trimethylpyrazol-4-yl)-3,4-dihydropyrazino[1,2-a]indol-2-yl]-1-methyl-N-(4-pyridylmethyl)indole-5-carboxamide] | 8.44 | – | – | 1500 |
| Cc1cc(N2CCCn3c(c(CCCOc4cc(C)c(Cl)c(C)c4)c4ccc(Cl)c(-c5c(C)ncnc5C)c43)C2=O)c2c(c1)cc(C(=O)O)n2C [Example 399, 7-(8-Chloro-11-(3-(4-chloro-3,5-dimethylphenoxy)propyl)-7-(4,6-dimethylpyrimidin-5-yl)-1-oxo-4,5-dihydro-1H-[1,4]diazepino[1,2-a]indol-2(3H)-yl)-1,5-dimethyl-1H-indole-2-carboxylic acid] | 8.62 | – | – | 210 |
| Cc1cc(OCCCc2c3n(c4c(-c5c(C)nn(C)c5C)c(Cl)ccc24)CCCN(c2cc(C(=O)O)cc4cnn(C)c24)C3=O)cc(C)c1Cl [Example 123, 7-(8-Chloro-11-(3-(4-chloro-3,5-dimethylphenoxy)propyl)-1-oxo-7-(1,3,5-trimethyl-1H-pyrazol-4-yl)-4,5-dihydro-1H-[1,4]diazepino[1,2-a]indol-2(3H)-yl)-1-methyl-1H-indazole-5-carboxylic acid] | > 9.00 | – | – | 6900 |
| Cc1cc(OCCCc2c3n(c4c(-c5c(C)nn(C)c5C)c(Cl)ccc24)[C@H](C)CN(c2cn(C)c4cccc(C(=O)O)c24)C3=O)cc(C)c1Cl [Example 106, (R)-3-(7-Chloro-10-(3-(4-chloro-3,5-dimethylphenoxy)propyl)-4-methyl-1-oxo-6-(1,3,5-trimethyl-1H-pyrazol-4-yl)-3,4-dihydropyrazino[1,2-a]indol-2(1H)-yl)-1-methyl-1H-indole-4-carboxylic acid] | > 9.00 | – | – | 790 |
| COCCn1c(C(=O)O)cc2c(N3C[C@@H](C)n4c(c(CCCOc5cc(C)c(Cl)c(C)c5)c5ccc(Cl)c(-c6c(C)nn(C)c6C)c54)C3=O)cccc21 [Example 353, (R)-4-(7-Chloro-10-(3-(4-chloro-3,5-dimethylphenoxy)propyl)-4-methyl-1-oxo-6-(1,3,5-trimethyl-1H-pyrazol-4-yl)-3,4-dihydropyrazino[1,2-a]indol-2(1H)-yl)-1-(2-methoxyethyl)-1H-indole-2-carboxylic acid] | 8.68 | – | – | 2900 |
| Cc1ccnc(Cn2c(C(=O)O)cc3cc(C)cc(N4C[C@@H](C)n5c(c(CCCOc6cc(C)c(Cl)c(C)c6)c6ccc(Cl)c(-c7c(C)nn(C)c7C)c65)C4=O)c32)c1 [Example 456, (R)-7-(7-Chloro-10-(3-(4-chloro-3,5-dimethylphenoxy)propyl)-4-methyl-1-oxo-6-(1,3,5-trimethyl-1H-pyrazol-4-yl)-3,4-dihydropyrazino[1,2-a]indol-2(1H)-yl)-5-methyl-1-((4-methylpyridin-2-yl)methyl)-1H-indole-2-carboxylic acid] | > 9.00 | – | – | < 200 |
| Cc1cc(N2C[C@@H](C)n3c(c(CCCOc4cc(C)c(Cl)c(C)c4)c4ccc(Cl)c(-c5c(C)nc(CN6CCOCC6)nc5C)c43)C2=O)c2c(c1)cc(C(=O)O)n2C [Example 416, (R)-7-(7-Chloro-10-(3-(4-chloro-3,5-dimethylphenoxy)propyl)-6-(4,6-dimethyl-2-(morpholinomethyl)pyrimidin-5-yl)-4-methyl-1-oxo-3,4-dihydropyrazino[1,2-a]indol-2(1H)-yl)-1,5-dimethyl-1H-indole-2-carboxylic acid] | > 9.00 | – | – | < 200 |
